Data reported in ChEMBL document CHEMBL1132680, “A "cephalosporin-like" cyclic depsipeptide: synthesis and reaction with beta-lactam-recognizing enzymes” (Bioorg Med Chem Lett, 1999).

How the values were obtained:
Format in all cases: ADME
[1] = Km against class A TEM beta-lactamase catalyzed lactone hydrolysis
[2] = Kcat/Km against class A TEM beta-lactamase catalyzed lactone hydrolysis
[3] = Kcat/Km against class A PCI beta-lactamase catalyzed lactone hydrolysis
[4] = Km against class C P99 beta-lactamase catalyzed lactone hydrolysis
[5] = Kcat against class A PCI beta-lactamase catalyzed lactone hydrolysis
[6] = Km against class A PCI beta-lactamase catalyzed lactone hydrolysis
[7] = Kcat against class A TEM beta-lactamase catalyzed lactone hydrolysis
[8] = Kcat against class C P99 beta-lactamase catalyzed lactone hydrolysis
[9] = Kcat/Km against class C P99 beta-lactamase catalyzed lactone hydrolysis

SMILES	Km [1] [µM]	Ratio [2] [M⁻¹ s⁻¹]	Ratio [3]	Km [4] [µM]	k cat [5] [s⁻¹]	Km [6] [µM]	k cat [7] [s⁻¹]	k cat [8] [s⁻¹]	Ratio [9] [M⁻¹ s⁻¹]
O=C(Cc1ccccc1)N[C@H]1Cc2cccc(C(=O)O)c2OC1=O	53	39000	1.55 M⁻¹ s⁻¹	620	0.0047	0.304	2.07	5.4	8700
O=C(Cc1ccccc1)N[C@@H](Cc1cccc(C(=O)O)c1O)B(O)O	> 1000	1200	1.6 M⁻¹ s⁻¹	290	0.024	15	> 1.2	5.6	19000
CC(=O)OCC1=C(C(=O)O)N2C(=O)[C@@H](NC(=O)Cc3cccs3)[C@H]2SC1 [CEPHALOTHIN]	200	600000	>= 1000 M-1 s-1	9	0.001	≤ 1	120	200	22000000
